Test results taken from US20110144345A1, “SULFOXYIMINO-SUBSTITUTED BENZOYL DERIVATIVE AND HERBICIDE” (NIPPON SODA CO., LTD., priority 2008, published 2011).

Tests used:
Echinochloa crus-galli = test: Paddy pot test, herbicidal effect on Echinochloa crus-galli; assay type: in vivo; set-up: scale not given here; settings: Screening, 63 g/ha, applied at 1.5-leaf stage, examined after 3 weeks
Protocol: (§1) Plastic pots having an area of 100 cm^2 and a depth of 10 cm were filled with paddy soil which is puddled by adding water, and seeds of Echinochloa crus-galli and Scirpus juncoides were planted in the pots. After seeding, rice plants at the 2.5-leaf stage were transplanted and the pots were filled with water. The rice plants were grown in a greenhouse. […] The herbicidal effects and harmful effects on the rice plants were examined after 3 weeks. Herbicidal effects were examined according to the examination criteria described below and were represented by the herbicidal index. [table] […] [formula]

Scirpus juncoides = test: Paddy pot test, herbicidal effect on Scirpus juncoides; assay type: in vivo; set-up: scale not given here; settings: Screening, 63 g/ha, examined after 3 weeks
Protocol: as §1

rice plants = test: Paddy pot test, harmful effects on transplanted rice plants; assay type: in vivo; set-up: scale not given here; settings: Screening, 63 g/ha, applied at Echinochloa crus-galli 1.5-leaf stage, examined after 3 weeks
Protocol: as §1

| melting point | Rice (harmful effects on the rice plants, index) (rice plants) | Compound | Echinochloa crus-galli (herbicidal index) (Echinochloa crus-galli) | Scripus juncoides (herbicidal index) (Scirpus juncoides) |
| --- | --- | --- | --- | --- |
| 116 to 118 °C | – | COc1ccc(C(=O)c2cnn(C)c2O)c(OC)c1N=S1(=O)CCCCC1 [Example 99] | – | – |
| – | 0 | COC(=O)c1ccc(C(=O)c2c(C3CC3)nn(C)c2O)cc1N=S1(=O)CCCCC1 [Example 102] | 6 | 6 |
| – | 0 | COC(=O)Oc1c(C(=O)c2ccc(OC)c(N=S3(=O)CCCCC3)c2Cl)cnn1C [Example 104] | 10 | 9 |
| – | 0 | COC(=O)n1cc(C(=O)c2ccc(OC)c(N=S3(=O)CCCCC3)c2Cl)c(=O)n1C [Example 105] | 10 | 8 |
| – | 0 | COc1ccc(C(=O)c2cnn(C)c2OS(=O)(=O)c2ccc(C)cc2)c(Cl)c1N=S1(=O)CCCCC1 [Example 106] | 10 | 8 |
| – | 0 | COc1ccc(C(=O)c2cnn(C)c2OCc2ccccc2)c(Cl)c1N=S1(=O)CCCCC1 [Example 107] | 7 | 7 |
| – | 0 | C=Cc1ccc(C(=O)c2cnn(C)c2O)c(Cl)c1N=S1(=O)CCCCC1 [Example 108] | 10 | 8 |
| – | 0 | Cc1ccc(C(=O)C2=C(O)CCCC2=O)c(C)c1N=S1(=O)CCCCC1 [Example 110] | 10 | 8 |
| – | 0 | Cc1ccc(C(=O)c2c(C)nn(C)c2OCc2ccc3ccccc3c2)c(C)c1N=S1(=O)CCCCC1 [Example 111] | 6 | 8 |
| – | 0 | COc1ccc(C(=O)c2cnn(C)c2OCc2ccc3ccccc3c2)c(F)c1N=S1(=O)CCCCC1 [Example 113] | 7 | 6 |
| – | 0 | COc1ccc(C(=O)c2cnn(C)c2OCC(=O)c2ccc([N+](=O)[O-])cc2)c(Cl)c1N=S1(=O)CCCCC1 [Example 114] | 10 | 8 |
| – | 0 | COc1ccc(C(=O)c2cnn(C)c2OCC(=O)c2ccccc2)c(Cl)c1N=S1(=O)CCCCC1 [Example 116] | 7 | 8 |
| – | 0 | Cn1ncc(C(=O)c2ccc(CO)c(N=S3(=O)CCCCC3)c2Cl)c1O [Example 117] | 5 | 8 |
| – | 0 | COc1ccc(C(=O)c2cnn(C)c2O)c(Cl)c1N=S(C)(=O)c1ccccc1 (stereo not drawn) [Example 118] | 7 | 8 |
| – | 0 | COc1ccc(C(=O)c2cnn(C)c2O)c(Cl)c1N=S(C)(=O)Cc1ccccc1 (stereo not drawn) [Example 119] | 10 | 8 |
| – | 0 | COc1ccc(C(=O)C2=C(O)CCCC2=O)c(Cl)c1N=S(C)(=O)Cc1ccccc1 (stereo not drawn) [Example 120] | 8 | 5 |
| – | 0 | COc1ccc(C(=O)c2cnn(C)c2OCc2ccc3ccccc3c2)c(Cl)c1N=S(C)(=O)Cc1ccccc1 (stereo not drawn) [Example 121] | 7 | 7 |
| – | 0 | COc1ccc(C(=O)c2cnn(C)c2OCc2ccc3ccccc3c2)c(Cl)c1N=S(C)(=O)c1ccccc1 (stereo not drawn) [Example 122] | 10 | 6 |
| – | 0 | COc1ccc(C(=O)c2cnn(C)c2OCc2ccc3ccccc3c2)c(Cl)c1N=S1(=O)CCCC1 [Example 129] | 7 | 8 |

| melting point | Rice (harmful effects on the rice plants, index) (rice plants) | Compound | Echinochloa crus-galli (herbicidal index) (Echinochloa crus-galli) | Scripus juncoides (herbicidal index) (Scirpus juncoides) |
| --- | --- | --- | --- | --- |
| – | 0 | CCCS(=O)(=O)Oc1c(C(=O)c2ccc(OC)c(N=S3(=O)CCCCC3)c2Cl)cnn1C [Example 130] | 10 | 8 |
| – | 0 | COc1c(N=S2(=O)CCCCC2)cccc1C(=O)c1cnn(C)c1OCc1ccc2ccccc2c1 [Example 132] | 6 | 8 |
| 96 to 98 °C | – | CCS(=O)(CC)=Nc1c(OC)ccc(C(=O)c2cnn(C)c2O)c1OC [Example 140] | – | – |
| 97 to 99 °C | – | Cn1ncc(C(=O)c2ccc(OCC(F)(F)F)c(N=S3(=O)CCCCC3)c2Cl)c1O [Example 144] | – | – |
| 111 to 113 °C | – | CCOc1c(C(=O)c2cnn(C)c2O)ccc(OC)c1N=S1(=O)CCCCC1 [Example 156] | – | – |
| 135 to 137 °C | – | COC(=O)c1ccc(C(=O)C2=C(O)CCCC2=O)c(Cl)c1N=S(C)(C)=O [Example 160] | – | – |
| 124 to 126 °C | – | CCOc1c(C(=O)c2cnn(CC)c2O)ccc(OC)c1N=S1(=O)CCCCC1 [Example 163] | – | – |
| 126 to 128 °C | – | CCS(=O)(CC)=Nc1c(C)ccc(C(=O)c2cnn(C)c2O)c1C [Example 167] | – | – |
| 133 to 135 °C | – | Cc1ccc(C(=O)c2cnn(C)c2O)c(C)c1N=S(C)(C)=O [Example 168] | – | – |
| 155 to 157 °C | – | CSc1c(C(=O)c2cnn(C)c2O)ccc(C(F)(F)F)c1N=S1(=O)CCCCC1 [Example 169] | – | – |
| 162 to 164 °C | – | Cn1ncc(C(=O)c2cccc(N=S3(=O)CCCCC3)c2F)c1O [Example 170] | – | – |
| 109 to 111 °C | – | CCOc1ccc(C(=O)c2cnn(C)c2O)c(OC)c1N=S1(=O)CCCCC1 [Example 175] | – | – |
| 134 to 137 °C | – | Cn1ncc(C(=O)c2ccc(Oc3ccccc3)c(N=S3(=O)CCCCC3)c2Cl)c1O [Example 180] | – | – |
| 124 to 126 °C | – | N#Cc1ccc(C(=O)C2=C(O)CCCC2=O)c(Cl)c1N=S1(=O)CCCCC1 [Example 186] | – | – |
| 135 to 139 °C | – | CC(=O)Oc1ccc(C(=O)c2cnn(C)c2O)c(Cl)c1N=S1(=O)CCCCC1 [Example 189] | – | – |
| 90 to 92 °C | – | COc1ccc(C(=O)c2cnn(C)c2O)c(Cl)c1N=S(C)(=O)c1cccs1 (stereo not drawn) [Example 192] | – | – |
| 159 to 162 °C | – | COc1ccc(C(=O)C2=C(O)CCCC2=O)c(Cl)c1N=S(C)(=O)c1cccs1 (stereo not drawn) [Example 194] | – | – |
| 99 to 101 °C | – | Cn1ncc(C(=O)c2ccc(OCCC3OCCO3)c(N=S3(=O)CCCCC3)c2Cl)c1O [Example 199] | – | – |
| 159 to 161 °C | – | CSC(=O)Oc1c(C(=O)c2ccc(OCCC3OCCO3)c(N=S3(=O)CCCCC3)c2Cl)cnn1C [Example 200] | – | – |

| melting point | Rice (harmful effects on the rice plants, index) (rice plants) | Compound | Echinochloa crus-galli (herbicidal index) (Echinochloa crus-galli) | Scripus juncoides (herbicidal index) (Scirpus juncoides) |
| --- | --- | --- | --- | --- |
| 169 to 171 °C | – | C#CCOc1ccc(C(=O)c2cnn(C)c2O)c(Cl)c1N=S1(=O)CCCCC1 [Example 205] | – | – |
| 153 to 155 °C | – | COCCOc1ccc(C(=O)c2cnn(C)c2O)c(Cl)c1N=S1(=O)CCCCC1 [Example 212] | – | – |
| 158 to 164 °C | – | Cn1ncc(C(=O)c2ccc(-c3cccs3)c(N=S3(=O)CCCCC3)c2Cl)c1O [Example 214] | – | – |
| 188 to 190 °C | – | Cn1ncc(C(=O)c2ccc(OCC3CC3)c(N=S3(=O)CCCCC3)c2Cl)c1O [Example 215] | – | – |
| 93 to 95 °C | – | COCOc1ccc(C(=O)c2cnn(C)c2O)c(Cl)c1N=S1(=O)CCCCC1 [Example 221] | – | – |
| 144 to 146 °C | – | COc1ccc(C(=O)c2cnn(C)c2O)c(Br)c1N=S1(=O)CCCCC1 [Example 223] | – | – |
| 97 to 103 °C | – | Cn1ncc(C(=O)c2ccc(-c3ccco3)c(N=S3(=O)CCCCC3)c2Cl)c1O [Example 228] | – | – |
| 165 to 167 °C | – | Cn1ncc(C(=O)c2ccc(O)c(N=S3(=O)CCCCC3)c2Cl)c1O [Example 233] | – | – |
| 131 to 132 °C | – | COc1ccc(C(=O)c2cnn(C)c2OCC(F)(F)F)c(Cl)c1N=S1(=O)CCCCC1 [Example 235] | – | – |
| 112 to 114 °C | – | CSCOc1ccc(C(=O)c2cnn(C)c2O)c(Cl)c1N=S1(=O)CCCCC1 [Example 238] | – | – |
| 104 to 106 °C | – | Cn1ncc(C(=O)c2ccc(OCS(C)(=O)=O)c(N=S3(=O)CCCCC3)c2Cl)c1O [Example 241] | – | – |
| 106 to 108 °C | – | Cn1ncc(C(=O)c2ccc(OCC(F)(F)C(F)(F)F)c(N=S3(=O)CCCCC3)c2Cl)c1O [Example 242] | – | – |
| 95 to 97 °C | – | Cn1ncc(C(=O)c2ccc(OC[S+](C)[O-])c(N=S3(=O)CCCCC3)c2Cl)c1O (stereo not drawn) [Example 245] | – | – |
| 129 to 131 °C | – | COc1ccc(C(=O)c2cnn(C)c2OC(=O)C2CC2)c(Cl)c1N=S1(=O)CCCCC1 [Example 246] | – | – |
| 88 to 91 °C | – | COc1ccc(C(=O)c2cnn(C)c2O)c(Cl)c1N=S(C)(=O)c1ccccc1 (stereo not drawn) [Example 249] | – | – |
| 85 to 87 °C | – | CCCOc1ccc(C(=O)c2cnn(C)c2O)c(Cl)c1N=S1(=O)CCCCC1 [Example 254] | – | – |
| 100 to 104 °C | – | CC(=O)c1ccc(C(=O)c2cnn(C)c2O)c(Cl)c1N=S1(=O)CCCCC1 [Example 255] | – | – |
| 77 to 79 °C | – | COCCOCOc1ccc(C(=O)c2cnn(C)c2O)c(Cl)c1N=S1(=O)CCCCC1 [Example 259] | – | – |
